Experimental data as given in paper PMC7044277 (Nature Communications, 2020).
Values joined by “and” are separate entries in the source; they are usually repeats but may differ in a detail not shown here. Equal values may be shown once.

Key:
Assay type in all cases: cell-based
Design in all cases: GPCRome screening signal at PTGIR / GPCRome screening signal at PTH1R / GPCRome screening signal at PTH2R / GPCRome screening signal at QRFP / GPCRome screening signal at RXFP2 / GPCRome screening signal at RXFP3 / GPCRome screening signal at RXFP4 / GPCRome screening signal at S1PR2 / GPCRome screening signal at S1PR3 / GPCRome screening signal at S1PR4 / GPCRome screening signal at S1PR5 / GPCRome screening signal at SCTR / GPCRome screening signal at SSTR2 / GPCRome screening signal at SSSTR / GPCRome screening signal at SSTR4 / GPCRome screening signal at SSTR5 / GPCRome screening signal at SUCNR1 / GPCRome screening signal at TA1 / GPCRome screening signal at TAAR2 / GPCRome screening signal at TAAR5 / GPCRome screening signal at TAAR6 / GPCRome screening signal at TAAR8 / GPCRome screening signal at TACR1 / GPCRome screening signal at TACR2 / GPCRome screening signal at TACR3 / GPCRome screening signal at TBXA2R / GPCRome screening signal at TSHR / GPCRome screening signal at UTS2R / GPCRome screening signal at VIPR2 / GPCRome screening signal at GPR68 no V2 Tail / GPCRome screening signal at GRM2 / GPCRome screening signal at GRM3: reference not given here
320 non-olfactory GPCRs [1] = target: T1, 320 non-olfactory GPCRs (Homo sapiens, UniProt P16473); settings: receptor TSHR
T1 construct: expressed in transfected cells; host or cells: HTLA cells
T1 sequence (P16473 21-764): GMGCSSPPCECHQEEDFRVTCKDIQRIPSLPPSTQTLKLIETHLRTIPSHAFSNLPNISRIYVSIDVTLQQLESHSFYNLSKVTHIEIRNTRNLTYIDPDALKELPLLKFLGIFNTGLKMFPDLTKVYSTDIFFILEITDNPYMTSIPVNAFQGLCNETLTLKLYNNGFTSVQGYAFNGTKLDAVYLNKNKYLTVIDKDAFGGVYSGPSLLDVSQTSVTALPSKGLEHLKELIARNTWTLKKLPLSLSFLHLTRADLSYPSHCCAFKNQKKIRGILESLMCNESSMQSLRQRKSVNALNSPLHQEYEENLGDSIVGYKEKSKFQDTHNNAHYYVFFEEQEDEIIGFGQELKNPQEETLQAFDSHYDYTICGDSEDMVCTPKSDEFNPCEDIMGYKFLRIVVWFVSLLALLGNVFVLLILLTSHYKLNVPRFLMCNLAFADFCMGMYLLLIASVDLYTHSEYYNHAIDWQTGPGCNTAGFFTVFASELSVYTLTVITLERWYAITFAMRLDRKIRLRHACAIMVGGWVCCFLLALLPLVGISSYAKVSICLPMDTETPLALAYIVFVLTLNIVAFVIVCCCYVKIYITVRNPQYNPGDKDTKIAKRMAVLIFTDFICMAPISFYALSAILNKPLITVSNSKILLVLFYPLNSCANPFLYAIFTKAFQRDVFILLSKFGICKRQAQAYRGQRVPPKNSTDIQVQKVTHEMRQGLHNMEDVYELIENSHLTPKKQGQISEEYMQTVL

320 non-olfactory GPCRs [2] = target: T2, 320 non-olfactory GPCRs (Homo sapiens, UniProt P43119); settings: receptor PTGIR
T2 construct: expressed in transfected cells; host or cells: HTLA cells
T2 sequence (P43119 whole entry): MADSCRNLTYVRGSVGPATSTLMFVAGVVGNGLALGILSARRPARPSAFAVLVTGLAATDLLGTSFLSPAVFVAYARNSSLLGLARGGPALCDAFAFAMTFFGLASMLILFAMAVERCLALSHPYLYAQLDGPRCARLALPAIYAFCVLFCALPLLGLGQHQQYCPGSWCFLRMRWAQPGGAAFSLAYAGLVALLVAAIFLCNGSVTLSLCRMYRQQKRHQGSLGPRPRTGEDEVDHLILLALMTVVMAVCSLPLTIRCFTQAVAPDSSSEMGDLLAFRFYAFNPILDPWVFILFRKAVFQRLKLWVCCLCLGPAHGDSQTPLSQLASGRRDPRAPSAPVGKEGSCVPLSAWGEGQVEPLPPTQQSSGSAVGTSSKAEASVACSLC

320 non-olfactory GPCRs [3] = target: T3, 320 non-olfactory GPCRs (Homo sapiens, UniProt P49190); settings: receptor PTH2R
T3 construct: expressed in transfected cells; host or cells: HTLA cells
T3 sequence (P49190 25-550): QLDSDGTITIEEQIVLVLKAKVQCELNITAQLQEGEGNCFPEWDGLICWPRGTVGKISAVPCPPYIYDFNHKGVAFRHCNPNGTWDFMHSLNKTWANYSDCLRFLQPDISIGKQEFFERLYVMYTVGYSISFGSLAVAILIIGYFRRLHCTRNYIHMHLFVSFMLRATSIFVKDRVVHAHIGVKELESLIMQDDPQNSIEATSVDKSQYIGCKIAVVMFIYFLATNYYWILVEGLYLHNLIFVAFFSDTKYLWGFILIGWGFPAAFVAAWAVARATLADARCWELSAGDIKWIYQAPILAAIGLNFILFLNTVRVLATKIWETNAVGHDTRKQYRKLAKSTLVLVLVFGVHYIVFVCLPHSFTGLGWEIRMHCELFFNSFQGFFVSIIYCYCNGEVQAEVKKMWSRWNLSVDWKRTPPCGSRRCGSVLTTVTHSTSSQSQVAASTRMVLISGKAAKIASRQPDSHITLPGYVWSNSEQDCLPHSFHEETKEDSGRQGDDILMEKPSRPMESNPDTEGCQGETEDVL

320 non-olfactory GPCRs [4] = target: T4, 320 non-olfactory GPCRs (Homo sapiens, UniProt Q14832); settings: receptor GRM3
T4 construct: expressed in transfected cells; host or cells: HTLA cells
T4 sequence (Q14832 23-879): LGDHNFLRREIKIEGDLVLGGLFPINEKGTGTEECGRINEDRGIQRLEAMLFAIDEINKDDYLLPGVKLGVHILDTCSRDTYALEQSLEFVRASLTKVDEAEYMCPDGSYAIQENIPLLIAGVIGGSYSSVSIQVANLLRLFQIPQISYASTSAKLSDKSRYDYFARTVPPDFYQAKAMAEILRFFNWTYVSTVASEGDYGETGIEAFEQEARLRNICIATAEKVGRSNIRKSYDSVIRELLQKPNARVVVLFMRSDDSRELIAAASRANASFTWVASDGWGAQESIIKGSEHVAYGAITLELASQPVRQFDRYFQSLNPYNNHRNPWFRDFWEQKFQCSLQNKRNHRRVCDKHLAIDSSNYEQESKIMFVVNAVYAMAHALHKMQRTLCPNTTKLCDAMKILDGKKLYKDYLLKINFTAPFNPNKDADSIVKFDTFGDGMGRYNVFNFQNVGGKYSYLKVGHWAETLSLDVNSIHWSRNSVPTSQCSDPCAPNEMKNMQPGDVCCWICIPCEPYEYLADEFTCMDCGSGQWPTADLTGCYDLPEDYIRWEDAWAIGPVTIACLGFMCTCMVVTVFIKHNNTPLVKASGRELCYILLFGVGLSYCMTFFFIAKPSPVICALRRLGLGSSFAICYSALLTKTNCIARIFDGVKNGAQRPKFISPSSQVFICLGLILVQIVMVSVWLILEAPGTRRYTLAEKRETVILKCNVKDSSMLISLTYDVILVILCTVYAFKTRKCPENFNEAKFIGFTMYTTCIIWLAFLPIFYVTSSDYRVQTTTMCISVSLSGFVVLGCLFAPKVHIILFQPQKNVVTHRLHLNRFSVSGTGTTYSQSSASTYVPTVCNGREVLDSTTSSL

[5] = Fig_5f, single replicate values
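Wherever GPCRome agonism screen response is given: fold over basal response of each receptor without drug.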

GPCRome screening signal at TSHR (320 non-olfactory GPCRs [1]; [5])	GPCRome screening signal at PTGIR (320 non-olfactory GPCRs [2]; [5])	GPCRome screening signal at PTH2R (320 non-olfactory GPCRs [3]; [5])	GPCRome screening signal at GRM3 (320 non-olfactory GPCRs [4]; [5])	SMILES	GPCRome agonism screen response (320 non-olfactory GPCRs [1]; replicate values, Fig_4g)	GPCRome agonism screen response (320 non-olfactory GPCRs [2]; replicate values, Fig_4g)	GPCRome agonism screen response (320 non-olfactory GPCRs [3]; replicate values, Fig_4g)	GPCRome agonism screen response (320 non-olfactory GPCRs [4]; replicate values, Fig_4g)
				CCOc1cccc2cc(C(C)NCC3(O)CCCCC3)oc12 (centres unmarked) [O4LE6]	0.633 and 1.167 and 0.8187 and 0.6635	1.654 and 0.8806 and 0.8629 and 1.301	1.171 and 0.1179 and 1.638 and 1.06	0.5635 and 0.5272 and 0.9256 and 1.931
0.6627 and 1.386 and 0.8068 and 1.0471	0.4707 and 0.7235 and 1.819 and 1.564	0.8447 and 0.9374 and 0.7725 and 1.472	0.4086 and 1.387 and 0.6216 and 1.325	CCOc1ccccc1CCC(C)NCC1(O)CCCCC1.Cl (racemic) [Fig_5f]				
